Data set [1] has as its system Human immunodeficiency virus 1. The experiment in a line: Antiviral activity against HIV1 infected in MT4 cells. It is filed as functional, organism-based. As to conditions: Human immunodeficiency virus 1, MT4.
Data set [2] is described as follows: Cytotoxicity against human MT4 cells. It counts as cell-based.
A further data set deals with Human rhinovirus 1A. The experiment in a line: Antiviral activity against HRV1A infected in HeLa cells. It is filed as functional, organism-based.
Data set [3] can be described thus: Cytotoxicity against human HeLa cells. It is filed as cell-based.
Data set [4] relates to Hepatitis C virus. The experiment in a line: Antiviral activity against HCV genotype 1a replicon infected in human HuH7 cells after 3 days by renilla luciferase assay. It is filed as functional, organism-based, Hepacivirus hominis. The note with it: subtype 1a; for EC50: Huh-7, 72 h; for Activity: Hepacivirus hominis, Huh-7. Background: Replicon systems follow genome replication, usually without infectious particles.

Data set [5] is described as follows: Cytotoxicity against human HuH7 infected with HCV genotype 1a cells after 3 days by calcein-AM dye based fluorescence analysis. The note with it: HuH7 cells infected with HCV genotype 1a. It counts as cell-based, Huh-7.
The subject of data set [6] is Hepatitis C virus. The experiment in a line: Antiviral activity against HCV genotype 1b replicon infected in HuH7 cells after 3 days by renilla luciferase assay. It is filed as functional, organism-based, Hepacivirus hominis. As to conditions: for EC50: Huh-7, 72 h; for Activity: Hepacivirus hominis, Huh-7.
Data set [7] in a line: Cytotoxicity against human HuH7 infected with HCV genotype 1b cells after 3 days by calcein-AM dye based fluorescence analysis. It is filed as cell-based, Huh-7. The note with it: HuH7 cells infected with HCV genotype 1b.
Data set [8] has as its system Hepatitis C virus. As to the kind of experiment: Antiviral activity against HCV genotype 2a replicon infected in HuH7 cells after 3 days by renilla luciferase assay. It counts as functional, organism-based, Hepacivirus hominis. The note with it: for EC50: Huh-7, 72 h; for Activity: Hepacivirus hominis, Huh-7.
Data set [9] in a line: Cytotoxicity against human HuH7 infected with HCV genotype 2a cells after 3 days by calcein-AM dye based fluorescence analysis. As to conditions: HuH7 cells infected with HCV genotype 2a. It counts as cell-based, Huh-7.
The subject of the next data set is Bordetella pertussis. The experiment in a line: Inhibition of Bordetella pertussis CyaA in mouse J774A.1 cells assessed as cAMP formation at 10 uM by immunoassay relative to control. It counts as cell-based. The note with it: values are per cent of control. In general terms: Changes in cAMP serve as a functional read-out for many G protein-coupled receptors.
A short description of data set [10]: Selectivity index, ratio of CC50 for human HuH7 cells to EC50 for HCV genotype 1a. Details: species or system Huh-7.
Data set [11] can be described thus: Selectivity index, ratio of CC50 for human HuH7 cells to EC50 for HCV genotype 1b. Details: species or system Huh-7.
A short description of data set [12]: Selectivity index, ratio of CC50 for human HuH7 cells to EC50 for HCV genotype 2a. The arrangement: species or system Huh-7.

Calls of active or inactive are those of the source. The calls are words filed in the database; no cut-off is given here.

Take `Nc1ncnc2c1ncn2C[C@H](OCP(=O)(O)O)C(=O)O`: the EC50 – broadly, the concentration needed to bring the measured effect to its halfway point – in [1] is more than 53.2 µM; in the data set on Human rhinovirus 1A, more than 50 µM; in the data set on Hepatitis C virus [4], more than 44.4 µM; in the data set with Hepatitis C virus [6], more than 44.4 µM; in the data set on Hepatitis C virus [8] it was more than 44.4 µM. Besides, the CC50 (usually the concentration that lowers cell viability or growth by half) is more than 53.2 µM in data set [2] and more than 50 µM in data set [3]. Also, the CC50 at 72 h in data set [5], in data set [7] and in data set [9] was more than 44.4 µM in each case.

As for `COC(=O)[C@H](Cn1cnc2c(N)ncnc21)OCP(=O)(O)O`, the residual activity (usually the signal under treatment as a percentage of the control signal) in the data set on Bordetella pertussis stood at 90%. Moreover, the result in the data set with Hepatitis C virus [4], in the data set with Hepatitis C virus [6] and in the data set on Hepatitis C virus [8] was inactive.

Consider `CCOC(=O)[C@H](C)NP(=O)(CO[C@@H](Cn1cnc2c(N)ncnc21)C(=O)OC)N[C@@H](C)C(=O)OCC`, for which the residual activity in the data set with Bordetella pertussis was 139%. For the same compound, the EC50 was more than 53.2 µM in data set [1]; more than 50 µM in the data set with Human rhinovirus 1A; more than 44.4 µM in the data set on Hepatitis C virus [4]; more than 44.4 µM in the data set on Hepatitis C virus [6]; 39.2 µM in the data set with Hepatitis C virus [8]. For the same compound, the CC50 was 40.5 µM in data set [2] and more than 50 µM in [3]. The CC50 at 72 h in [5], in data set [7] and in data set [9] was more than 44.4 µM throughout.

On to `CCOC(=O)[C@H](Cc1ccccc1)NP(=O)(CO[C@@H](Cn1cnc2c(N)ncnc21)C(=O)OC)N[C@@H](Cc1ccccc1)C(=O)OCC`, for which the residual activity in the data set with Bordetella pertussis turned out to be 112%. Further, the “Ratio CC50/EC50” value in data set [10], in data set [11] and in data set [12] was 30 throughout. The half-maximal effective concentration (EC50) in data set [1] was more than 53.2 µM; in the data set on Human rhinovirus 1A it was more than 50 µM; in the data set on Hepatitis C virus [4], 0.6 µM; in the data set with Hepatitis C virus [6], 1.1 µM; with Hepatitis C virus [8] it was 0.6 µM. In addition, the CC50 is 0.7 µM in [2] and more than 50 µM in [3]. For the same compound, the CC50 at 72 h in data set [5] is 18.3 µM; in data set [7] it was 30.4 µM; in data set [9] it was 12.6 µM.

In the case of `CCOC(=O)[C@H](C)NC(=O)[C@H](Cn1cnc2c(N)ncnc21)OCP(=O)(N[C@@H](C)C(=O)OCC)N[C@@H](C)C(=O)OCC`, the EC50 is more than 53.2 µM in data set [1]; more than 50 µM in the data set with Human rhinovirus 1A; more than 44.4 µM in the data set on Hepatitis C virus [4]; more than 44.4 µM in the data set on Hepatitis C virus [6]; more than 44.4 µM with Hepatitis C virus [8]. The CC50 in data set [2] was more than 53.2 µM; in [3], more than 50 µM. Also, the CC50 at 72 h in data set [5], in [7] and in data set [9] was more than 44.4 µM in each case.

Consider `CCCCCCCCCCCCCCCCOCCCOP(=O)(O)CO[C@@H](Cn1cnc2c(N)ncnc21)C(=O)OC`, for which the residual activity with Bordetella pertussis was determined as 140%. Also, the EC50 in data set [1] is more than 53.2 µM; in the data set with Human rhinovirus 1A it was more than 50 µM; with Hepatitis C virus [4] it was 20.6 µM; in the data set on Hepatitis C virus [6] it was 30.9 µM; in the data set with Hepatitis C virus [8] it was 9.6 µM. In addition, the CC50 was 3.7 µM in data set [2] and more than 50 µM in [3]. In addition, the CC50 at 72 h in data set [5], in data set [7] and in [9] was more than 44.4 µM throughout.

With `Nc1ncnc2c1ncn2C[C@H](OCP(=O)(O)O)C(=O)NC1CC1`, in the data set on Bordetella pertussis, the residual activity was 135%. The result in the data set on Hepatitis C virus [4], in the data set with Hepatitis C virus [6] and in the data set with Hepatitis C virus [8] was inactive.

Turning to `CCOC(=O)[C@H](Cc1ccccc1)NP(=O)(CO[C@@H](Cn1cnc2c(N)ncnc21)C(=O)OC)Oc1ccccc1` (some centres not stated), the residual activity with Bordetella pertussis came to 68%. Also, the “Ratio CC50/EC50” value in [10], in [11] and in data set [12] was 30 in each case. In addition, the EC50 in data set [1] was more than 53.2 µM; in the data set on Human rhinovirus 1A, more than 50 µM; in the data set on Hepatitis C virus [4], 0.8 µM; in the data set with Hepatitis C virus [6], 1.5 µM; in the data set on Hepatitis C virus [8], 0.6 µM. For the same compound, the CC50 in data set [2] is 1.4 µM; in data set [3] it was more than 50 µM. The CC50 at 72 h in [5] is 42.6 µM; in data set [7], more than 44.4 µM; in data set [9], 25.3 µM.

In the case of `NC(=O)[C@H](Cn1cnc2c(N)ncnc21)OCP(=O)(O)O`, the residual activity with Bordetella pertussis came out at 66%. In addition, the outcome in the data set with Hepatitis C virus [4], in the data set on Hepatitis C virus [6] and in the data set on Hepatitis C virus [8] was inactive.
